In this assay the test system is T1, KERUS.
T1 construct: native extracellular enzyme purified from culture supernatant; mature form 275 aa of a 383-aa pre-pro-enzyme (pre 29 aa, pro 79 aa removed)
Kind of assay: esterase activity, absorbance at […] nm, Lineweaver-Burk. The assay is classed as biochemical, Brevibacillus brevis. The following applies: pH 8, 40°C, 10% (v/v) DMSO, 1% (v/v) Triton X-100.

The Km is the substrate concentration at which the rate is half of its maximum.

The structures appear in SMILES notation.

Take `CCOC(=O)[C@H](CCCN=C(N)N)NC(=O)c1ccccc1` [BAEE]: the Km came to 655 ± 33 µM.

These data come from paper PMC3795758, “Biochemical and Molecular Characterization of a Serine Keratinase from Brevibacillus brevis US575 with Promising Keratin-Biodegradation and Hide-Dehairing Activities” (PLoS ONE, 2013).
